Results published in patent US11225505B2, “Antimicrobial polymyxin derivative compounds” (MONASH UNIVERSITY, priority 2015, dated 2022).
In brackets after ≈: the same amount, converted by molar mass. Where a SMILES comes first, the peptide text is derived from it. Bridges are numbered along the chain shown (N, C = ends). [ ]: non-standard residue; d: D form. The star is where a group is joined. X15 = O=C(c1ccc(Cl)nc1Cl)*; X1 = O=C(c1ncc(Cl)cc1Cl)*; Dab = NCC[C@H](N)C(=O)O; X3 = O=C(c1cncc(Cl)c1)*; Abu = CC[C@H](N)C(=O)O; Dap = NC[C@H](N)C(=O)O

Key:
Assay type in all cases: cell-based
[1] = tested on: Acinetobacter baumannii FADDI-AB030; assay: microbe, parasite or virus in culture; settings: FADDI-AB030
Description: MICs of the lipopeptides (trifluoroacetic acid salt, TFA) were determined by broth microdilution in cation-adjusted Mueller-Hinton broth (CAMHB) (Oxoid Australia, Thebarton, SA, Australia) according to the Clinical and Laboratory Standards Institute protocol (Clinical and Laboratory Standards Institute, Performance standards for antimicrobial susceptibility testing; twentyforth informational supplement M100-S24. Wayne, Pa., 2014). Polymyxin B sulphate was employed as the control. […] The following isolates were examined: Pseudomonas aeruginosa ATCC 27853, Pseudomonas aeruginosa FADDI-PA022*, Pseudomonas aeruginosa FADDI-PA01*, Pseudomonas aeruginosa FADDI-PA038*, Acinetobacter baumannii FADDI-AB034*, Acinetobacter baumannii ATCC 17978, Acinetobacter baumannii FADDI-AB030*, Klebsiella pneumoniae FADDI-KP032, Klebsiella pneumoniae FADDI-KP022*, Klebsiella pneumoniae Kp BM1*, Enterobacter cloacae FADDI-EC006, Enterobacter cloacae FADDI-EC001, and Enterobacter cloacae FADDI-EC003 (* Multi drug-resistant clinical isolates, § New Delhi Metallo-beta-lactamase-1 (NDM-1) producing). The results are illustrated in Tables 4 and 5. […]

[2] = tested on: Acinetobacter baumannii FADDI-AB034; settings: FADDI-AB034
Description: (§1) MICs of the lipopeptides (trifluoroacetic acid salt, TFA) were determined by broth microdilution in cation-adjusted Mueller-Hinton broth (CAMHB) (Oxoid Australia, Thebarton, SA, Australia) according to the Clinical and Laboratory Standards Institute protocol (Clinical and Laboratory Standards Institute, Performance standards for antimicrobial susceptibility testing; twentyforth informational supplement M100-S24. Wayne, Pa., 2014). Polymyxin B sulphate was employed as the control. Antimicrobial activity of Compounds 1-104 against polymyxin-susceptible Gram-negative bacteria was examined. The following isolates were examined: Pseudomonas aeruginosa ATCC 27853, Pseudomonas aeruginosa FADDI-PA022*, Pseudomonas aeruginosa FADDI-PA01*, Pseudomonas aeruginosa FADDI-PA038*, Acinetobacter baumannii FADDI-AB034*, Acinetobacter baumannii ATCC 17978, Acinetobacter baumannii FADDI-AB030*, Klebsiella pneumoniae FADDI-KP032, Klebsiella pneumoniae FADDI-KP022*, Klebsiella pneumoniae Kp BM1*, Enterobacter cloacae FADDI-EC006, Enterobacter cloacae FADDI-EC001, and Enterobacter cloacae FADDI-EC003 (* Multi drug-resistant clinical isolates, § New Delhi Metallo-beta-lactamase-1 (NDM-1) producing). The results are illustrated in Tables 4 and 5.

[3] = tested on: Enterobacter cloacae FADDI-EC001; settings: FADDI-EC001
Description: as §1

[4] = tested on: Klebsiella pneumoniae Kp BM1; settings: Kp BM1
Description: as §1

[5] = tested on: Pseudomonas aeruginosa FADDI-PA038; settings: FADDI-PA038
Description: as §1

[6] = tested on: Klebsiella pneumoniae FADDI-KP032; settings: FADDI-KP032
Description: as §1

[7] = tested on: Enterobacter cloacae FADDI-EC006; settings: FADDI-EC006
Description: as §1

[8] = tested on: Enterobacter cloacae FADDI-EC003; settings: FADDI-EC003
Description: as §1

[9] = tested on: Pseudomonas aeruginosa FADDI-PA022; settings: FADDI-PA022
Description: as §1

[10] = tested on: Acinetobacter baumannii ATCC 17978; settings: ATCC 17978
Description: as §1

[11] = tested on: Klebsiella pneumoniae FADDI-KP022; settings: FADDI-KP022
Description: as §1

[12] = tested on: Pseudomonas aeruginosa FADDI-PA01; settings: FADDI-
Description: as §1

[13] = tested on: Pseudomonas aeruginosa ATCC 27853; settings: ATCC 27853
Description: as §1

SMILES: CC[C@@H]1NC(=O)[C@@H](CC(C)C)NC(=O)[C@H](CCN)NC(=O)[C@@H](NC(=O)[C@H](CN)NC(=O)[C@@H](NC(=O)[C@H](CCN)NC(=O)c2cncc(Cl)c2)[C@@H](C)O)CCNC(=O)[C@H]([C@@H](C)O)NC(=O)[C@H](CCN)NC(=O)[C@H](CCN)NC1=O [Compound 6] (X3-[Dab]T[Dap][Dab][Dab][dL][Abu][Dab][Dab]T; lactam 4-C)
- Minimum inhibitory concentration [1]: 1 µg/mL (≈ 0.888 µM)
- Minimum inhibitory concentration [2]: 2 µg/mL (≈ 1.78 µM)
- Minimum inhibitory concentration [3]: 0.25 µg/mL (≈ 0.222 µM)
- Minimum inhibitory concentration [4]: 0.5 µg/mL (≈ 0.444 µM)
- Minimum inhibitory concentration [5]: 0.5 µg/mL (≈ 0.444 µM)
- Minimum inhibitory concentration [6]: 0.25 µg/mL (≈ 0.222 µM)
- Minimum inhibitory concentration [7]: 0.25 µg/mL (≈ 0.222 µM)
- Minimum inhibitory concentration [8]: <0.125 µg/mL
- Minimum inhibitory concentration [9]: 1 µg/mL (≈ 0.888 µM)
- Minimum inhibitory concentration [10]: 2 µg/mL (≈ 1.78 µM)
- Minimum inhibitory concentration [11]: <0.125 µg/mL
- Minimum inhibitory concentration [12]: 0.5 µg/mL (≈ 0.444 µM)
- Minimum inhibitory concentration [13]: 1 µg/mL (≈ 0.888 µM)

SMILES: CC[C@@H]1NC(=O)[C@@H](CC(C)C)NC(=O)[C@H](CCN)NC(=O)[C@@H](NC(=O)[C@H](CN)NC(=O)[C@@H](NC(=O)[C@H](CCN)NC(=O)c2ccc(Cl)nc2Cl)[C@@H](C)O)CCNC(=O)[C@H]([C@@H](C)O)NC(=O)[C@H](CCN)NC(=O)[C@H](CCN)NC1=O [Compound 7] (X15-[Dab]T[Dap][Dab][Dab][dL][Abu][Dab][Dab]T; lactam 4-C)
- Minimum inhibitory concentration [1]: 0.5 µg/mL (≈ 0.431 µM)
- Minimum inhibitory concentration [2]: 2 µg/mL (≈ 1.72 µM)
- Minimum inhibitory concentration [3]: <0.125 µg/mL
- Minimum inhibitory concentration [4]: 0.5 µg/mL (≈ 0.431 µM)
- Minimum inhibitory concentration [5]: 0.5 µg/mL (≈ 0.431 µM)
- Minimum inhibitory concentration [6]: 1 µg/mL (≈ 0.861 µM)
- Minimum inhibitory concentration [7]: 0.25 µg/mL (≈ 0.215 µM)
- Minimum inhibitory concentration [8]: <0.125 µg/mL
- Minimum inhibitory concentration [9]: 1 µg/mL (≈ 0.861 µM)
- Minimum inhibitory concentration [10]: 1 µg/mL (≈ 0.861 µM)
- Minimum inhibitory concentration [11]: <0.125 µg/mL
- Minimum inhibitory concentration [12]: 0.25 µg/mL (≈ 0.215 µM)
- Minimum inhibitory concentration [13]: 1 µg/mL (≈ 0.861 µM)

SMILES: CC(C)C[C@H]1NC(=O)[C@H](CCN)NC(=O)[C@@H](NC(=O)[C@H](CN)NC(=O)[C@@H](NC(=O)[C@H](CCN)NC(=O)c2ncc(Cl)cc2Cl)[C@@H](C)O)CCNC(=O)[C@H]([C@@H](C)O)NC(=O)[C@H](CCN)NC(=O)[C@H](CCN)NC(=O)[C@H]([C@@H](C)O)NC1=O [Compound 8] (X1-[Dab]T[Dap][Dab][Dab][dL]T[Dab][Dab]T; lactam 4-C)
- Minimum inhibitory concentration [1]: 4 µg/mL (≈ 3.4 µM)
- Minimum inhibitory concentration [2]: 4 µg/mL (≈ 3.4 µM)
- Minimum inhibitory concentration [3]: <0.125 µg/mL
- Minimum inhibitory concentration [4]: 0.5 µg/mL (≈ 0.425 µM)
- Minimum inhibitory concentration [5]: 0.5 µg/mL (≈ 0.425 µM)
- Minimum inhibitory concentration [6]: 0.5 µg/mL (≈ 0.425 µM)
- Minimum inhibitory concentration [7]: 0.25 µg/mL (≈ 0.212 µM)
- Minimum inhibitory concentration [8]: 0.25 µg/mL (≈ 0.212 µM)
- Minimum inhibitory concentration [9]: 0.5 µg/mL (≈ 0.425 µM)
- Minimum inhibitory concentration [10]: 4 µg/mL (≈ 3.4 µM)
- Minimum inhibitory concentration [11]: <0.125 µg/mL
- Minimum inhibitory concentration [12]: 0.5 µg/mL (≈ 0.425 µM)
- Minimum inhibitory concentration [13]: 0.25 µg/mL (≈ 0.212 µM)
